In patent US10435447B2, “Bacteriocidal peptides and uses thereof” (priority 2015, dated 2019):
In brackets after ≈: the same amount, converted by molar mass. Entries after “also recorded” stand apart in the source; their conditions may differ. Like-named read-outs stand apart in the source and are kept apart here. Residues, ends and D or L forms follow the SMILES beside them. No end group written: not given here.

Assays:
[1] = system: Toll-like receptor 3 (TLR3); test: IL-6 ELISA, TLR3 signaling with poly(I:C) in BEAS-2B cells; type: cell-based, human
Description: Innate immune signaling by endogenous Toll-like receptor 3 (TLR3) in BEAS-2B cells in response to double-stranded RNA and various bacteriocidal peptides. IL-6 cytokine produced in response to signal transduction by TLR3 and the double-stranded RNA mimic, poly(I:C), was quantified using ELISA. Where present, the peptides were added to the media of BEAS-2B cells to a final concentration of 2 μM. […] All assays were performed in three independent samples and the mean and one standard error is shown above the bars.

[2] = system: human red blood cells (hRBCs); settings: human RBCs
[3] = system: 19 selected strains of Gram-negative bacteria; type: cell-based; settings: for antibacterial / bacteriocidal activity (in words): 19 Gram-negative strains; for number of the 19 Gram-negative strains inhibited: peptide at 16 μg/ml (~4 μM)
Excerpt: FIG. 3. […] FIG. 3A. […] FIG. 3B. […] FIG. 3C. […] FIG. 3D. […] FIG. 3F.

[4] = system: E. faecalis
[5] = system: S. aureus

Q: With “PMAP-37: SEQ ID NO: 8, pig cathelicidin, GLLSRLRDFLSDRGRRLGEKIERIGQKIKDLSEFFQS (listed as Sus scrofa)” as the compound, how does the “enhancement of TLR3 signaling / IL-6 production (in words)” value [1] read?
A: Its value is “more similar to CRAMP”.

Q: “RL-37: SEQ ID NO: 2, Rhesus monkey cathelicidin, RLGNFFRKVKEKIGGGLKKVGQKIKDFLGNLVPRTAS (listed as Macaca mulatta)” was tested. Which “enhancement of TLR3 signaling / IL-6 production (in words)” value [1] did it give?
A: Its value is “retain partial enhancement of TLR3 signaling”.

Q: CC[C@H](C)[C@H](NC(=O)[C@H](CCCCN)NC(=O)[C@H](C)NC(=O)[C@H](CCCCN)NC(=O)[C@H](CO)NC(=O)[C@H](CCCCN)NC(=O)[C@H](CCCNC(=N)N)NC(=O)[C@H](Cc1ccccc1)NC(=O)[C@H](Cc1ccccc1)NC(=O)[C@H](C)NC(=O)CNC(=O)[C@H](CC(C)C)NC(=O)[C@@H](N)CC(C)C)C(=O)NCC(=O)N[C@@H](CCCCN)C(=O)N[C@@H](C)C(=O)N[C@@H](Cc1ccccc1)C(=O)N[C@@H](CCCCN)C(=O)N[C@@H](CCCNC(=N)N)C(=O)N[C@H](C(=O)N[C@H](C(=O)N[C@@H](CCC(N)=O)C(=O)N[C@@H](CCCNC(=N)N)C(=O)N[C@H](C(=O)N[C@@H](CCCCN)C(=O)N[C@@H](C)C(=O)N[C@@H](Cc1ccccc1)C(=O)N[C@@H](CC(C)C)C(=O)N[C@@H](CCCNC(=N)N)C(=O)O)[C@@H](C)CC)C(C)C)[C@@H](C)CC [LL-29V] (H-LLGAFFRKSKAKIGKAFKRIVQRIKAFLR-OH) was tested. Which “RBC lysis (in words)” value [2] did it give?
A: Its value is “comparable levels of RBC lysis as LL-29”.

Q: Which “RBC lysis (in words)” value [2] does the source give for CC[C@H](C)[C@H](NC(=O)[C@H](CCCCN)NC(=O)[C@H](CCC(=O)O)NC(=O)[C@H](CCCCN)NC(=O)[C@H](CO)NC(=O)[C@H](CCCCN)NC(=O)[C@H](CCCNC(=N)N)NC(=O)[C@H](Cc1ccccc1)NC(=O)[C@H](Cc1ccccc1)NC(=O)[C@H](CC(=O)O)NC(=O)CNC(=O)[C@H](CC(C)C)NC(=O)[C@@H](N)CC(C)C)C(=O)NCC(=O)N[C@@H](CCCCN)C(=O)N[C@@H](CCC(=O)O)C(=O)N[C@@H](Cc1ccccc1)C(=O)N[C@@H](CCCCN)C(=O)N[C@@H](CCCNC(=N)N)C(=O)N[C@H](C(=O)N[C@H](C(=O)N[C@@H](CCC(N)=O)C(=O)N[C@@H](CCCNC(=N)N)C(=O)N[C@H](C(=O)N[C@@H](CCCCN)C(=O)N[C@@H](CC(=O)O)C(=O)N[C@@H](Cc1ccccc1)C(=O)N[C@@H](CC(C)C)C(=O)N[C@@H](CCCNC(=N)N)C(=O)N[C@@H](CC(N)=O)C(=O)N[C@@H](CC(C)C)C(=O)N[C@H](C(=O)N1CCC[C@H]1C(=O)N[C@@H](CCCNC(=N)N)C(=O)N[C@H](C(=O)N[C@@H](CCC(=O)O)C(=O)N[C@@H](CO)C(=O)O)[C@@H](C)O)C(C)C)[C@@H](C)CC)C(C)C)[C@@H](C)CC [LL-37] here?
A: The value was “RBC lysis in a concentration-dependent manner”.

Q: CC[C@H](C)[C@H](NC(=O)[C@@H](NC(=O)[C@@H]1CCCN1C(=O)[C@H](CO)NC(=O)[C@H](CC(C)C)NC(=O)[C@H](CCCCN)NC(=O)[C@H](CCCCN)NC(=O)[C@H](Cc1ccccc1)NC(=O)[C@H](CC(C)C)NC(=O)[C@H](CCCCN)NC(=O)[C@H](CCCCN)NC(=O)[C@H](Cc1ccccc1)NC(=O)[C@H](CCCCN)NC(=O)[C@H](CCCCN)NC(=O)[C@H](CCCNC(=N)N)NC(=O)[C@H](Cc1ccccc1)NC(=O)[C@H](CCCNC(=N)N)NC(=O)[C@H](CCCCN)NC(=O)[C@H](Cc1ccccc1)NC(=O)[C@H](CCCNC(=N)N)NC(=O)CN)C(C)C)C(=O)N1CCC[C@H]1C(=O)N[C@@H](CC(C)C)C(=O)N[C@@H](CC(C)C)C(=O)N[C@@H](Cc1c[nH]cn1)C(=O)N[C@@H](CC(C)C)C(=O)NCC(=O)O [BMAP-27] (H-GRFKRFRKKFKKLFKKLSPVIPLLHLG-OH; N-terminus and C-terminus assumed) was tested. Which “antibacterial / bacteriocidal activity (in words)” value [3] did it give?
A: Its value is “most potent antibacterial activities; also recorded: most effective”.

Q: What about the MIC [4] of the same compound?
A: Its MIC is greater than 32 µg/mL.

Q: How did the “RBC lysis (in words)” value [2] turn out when CC[C@H](C)[C@H](NC(=O)[C@H](CCCCN)NC(=O)[C@H](CCC(=O)O)NC(=O)[C@H](CCCCN)NC(=O)[C@H](CO)NC(=O)[C@H](CCCCN)NC(=O)[C@H](CCCNC(=N)N)NC(=O)[C@H](Cc1ccccc1)NC(=O)[C@H](Cc1ccccc1)NC(=O)[C@H](C)NC(=O)CNC(=O)[C@H](CC(C)C)NC(=O)[C@@H](N)CC(C)C)C(=O)NCC(=O)N[C@@H](CCCCN)C(=O)N[C@@H](C)C(=O)N[C@@H](Cc1ccccc1)C(=O)N[C@@H](CCCCN)C(=O)N[C@@H](CCCNC(=N)N)C(=O)N[C@H](C(=O)N[C@H](C(=O)N[C@@H](CCC(N)=O)C(=O)N[C@@H](CCCNC(=N)N)C(=O)N[C@H](C(=O)N[C@@H](CCCCN)C(=O)N[C@@H](CC(=O)O)C(=O)N[C@@H](Cc1ccccc1)C(=O)N[C@@H](CC(C)C)C(=O)N[C@@H](CCCNC(=N)N)C(=O)O)[C@@H](C)CC)C(C)C)[C@@H](C)CC [LL-29V2] (H-LLGAFFRKSKEKIGKAFKRIVQRIKDFLR-OH) was run?
A: The value was “slightly increased RBC lysis”.

Q: What does the source list for “GLRKKFRKTRKRIQKLGRKIGKTGRKVWKAWREYGQIPYPCRI [CAP-11]”?
A: antibacterial / bacteriocidal activity (in words) [3]: most potent antibacterial activities; also recorded: most effective; number of the 19 Gram-negative strains inhibited [3]: 16 strains; MIC [4]: >32 µg/mL; MIC ([5]; S. aureus 25923): 32 µg/mL; MIC ([5]; S. aureus 29213): 32 µg/mL; enhancement of TLR3 signaling / IL-6 production (in words) [1]: retained reduced levels of activation of TLR3 in comparison to LL-37; also recorded: retain partial enhancement of TLR3 signaling

Q: With “GLRKKFRETRKEIQKLGEKIGKTGRKVWKDWREYGQIPYPCRI [CAP-11V3]” as the compound, how does the MIC [4] read?
A: Its MIC is greater than 32 µg/mL.

Q: What about the MIC ([5]; S. aureus 25923) of the same compound?
A: The MIC was greater than 32 µg/mL.

Q: What about the MIC ([5]; S. aureus 29213) of the same compound?
A: Its MIC is greater than 32 µg/mL.

Q: How did the “enhancement of TLR3 signaling / IL-6 production (in words)” value [1] turn out when “BMAP-34: SEQ ID NO: 7, cow cathelicidin, GLFRRLRDSIRRGQQKILEKARRIGERIKDIFRG (listed as Bos taurus)” was run?
A: Its value is “more similar to CRAMP”.

Q: How did the MIC [4] turn out when CC[C@H](C)[C@H](NC(=O)[C@H](CCCCN)NC(=O)[C@H](CCCNC(=N)N)NC(=O)CNC(=O)[C@H](CC(C)C)NC(=O)[C@H](CCCCN)NC(=O)[C@H](CCC(N)=O)NC(=O)[C@@H](NC(=O)[C@H](CCCNC(=N)N)NC(=O)[C@H](CCCCN)NC(=O)[C@H](CCCNC(=N)N)NC(=O)[C@@H](NC(=O)[C@H](CCCCN)NC(=O)[C@H](CCCNC(=N)N)NC(=O)[C@H](Cc1ccccc1)NC(=O)[C@H](CCCCN)NC(=O)[C@H](CCCCN)NC(=O)[C@H](CCCNC(=N)N)NC(=O)[C@H](CC(C)C)NC(=O)CN)[C@@H](C)O)[C@@H](C)CC)C(=O)NCC(=O)N[C@@H](CCCCN)C(=O)N[C@H](C(=O)NCC(=O)N[C@@H](CCCNC(=N)N)C(=O)N[C@@H](CCCCN)C(=O)N[C@H](C(=O)N[C@@H](Cc1c[nH]c2ccccc12)C(=O)N[C@@H](CCCCN)C(=O)N[C@@H](C)C(=O)N[C@@H](Cc1c[nH]c2ccccc12)C(=O)N[C@@H](CCCNC(=N)N)C(=O)N[C@@H](CCC(=O)O)C(=O)N[C@@H](Cc1ccc(O)cc1)C(=O)O)C(C)C)[C@@H](C)O [CAP-11V1] (H-GLRKKFRKTRKRIQKLGRKIGKTGRKVWKAWREY-OH) was run?
A: Its MIC is greater than 32 µg/mL.

Q: What about the MIC ([5]; S. aureus 25923) of the same compound?
A: Its MIC is 32 µg/mL (≈ 7.51 µM).

Q: And the MIC ([5]; S. aureus 29213)?
A: The MIC was 32 µg/mL (≈ 7.51 µM).

Q: And the “RBC lysis (in words)” value [2]?
A: Its value is “decreased RBC lysis; also recorded: did not result in increased lysis of human RBCs”.

Q: Which results are given for “eCATH-3: SEQ ID NO: 9, horse cathelicidin, KRFHSVGSLIQRHQQMIRDKSEATRHGIRIITRPKLLLAS (listed as Equus caballus)”?
A: antibacterial / bacteriocidal activity (in words) [3]: least effective; number of the 19 Gram-negative strains inhibited [3]: did not inhibit the growth of any; enhancement of TLR3 signaling / IL-6 production (in words) [1]: more similar to CRAMP

Q: CC[C@H](C)[C@H](NC(=O)[C@H](CCCCN)NC(=O)[C@H](CCC(=O)O)NC(=O)[C@H](CCCCN)NC(=O)[C@H](CO)NC(=O)[C@H](CCCCN)NC(=O)[C@H](CCCNC(=N)N)NC(=O)[C@H](Cc1ccccc1)NC(=O)[C@H](Cc1ccccc1)NC(=O)[C@H](CC(=O)O)NC(=O)CNC(=O)[C@H](CC(C)C)NC(=O)[C@@H](N)CC(C)C)C(=O)NCC(=O)N[C@@H](CCCCN)C(=O)N[C@@H](CCC(=O)O)C(=O)N[C@@H](Cc1ccccc1)C(=O)N[C@@H](CCCCN)C(=O)N[C@@H](CCCNC(=N)N)C(=O)N[C@H](C(=O)N[C@H](C(=O)N[C@@H](CCC(N)=O)C(=O)N[C@@H](CCCNC(=N)N)C(=O)N[C@H](C(=O)N[C@@H](CCCCN)C(=O)N[C@@H](CC(=O)O)C(=O)N[C@@H](Cc1ccccc1)C(=O)N[C@@H](CC(C)C)C(=O)N[C@@H](CCCNC(=N)N)C(=O)O)[C@@H](C)CC)C(C)C)[C@@H](C)CC [LL-29] (H-LLGDFFRKSKEKIGKEFKRIVQRIKDFLR-OH) was tested. Which “RBC lysis (in words)” value [2] did it give?
A: Its value is “reduced in RBC lysis; also recorded: did not result in increased lysis of human RBCs”.

Q: “GLRKKFRETRKEIQKLGRKIGKTGRKVWKAWREYGQIPYPCRI [CAP-11V2]” was tested. Which MIC [4] did it give?
A: The MIC was greater than 32 µg/mL.

Q: What about the MIC ([5]; S. aureus 25923) of the same compound?
A: The MIC was greater than 32 µg/mL.

Q: What about the MIC ([5]; S. aureus 29213) of the same compound?
A: The MIC was greater than 32 µg/mL.
